This is an account of results in patent US9375013B2, “Herbicidal composition” (ISHIHARA SANGYO KAISHA, LTD., priority 2013, dated 2016).

What all share (type): in vivo
Assay [1] deals with common lespedeza (Lespedeza striata (Thunb.) Hook. et Arn.). Kind of assay: Test Example 12: pot soil treatment, growth inhibition of common lespedeza. As to conditions: Kummerowia striata, dose 50 g/ha, 21st day after treatment, read-out: Growth inhibition rate (%) of common lespedeza, Measured value. From the text:
(§1) On the 14th day after treatment, the state of growth of the summergrass was visually observed to determine the growth inhibition rate in accordance with the following evaluation standard. The growth inhibition rate (%) (measured value) and the growth inhibition rate (%) (calculated value) calculated by the Colby's formula are shown in Table 1. Growth inhibition rate (%)=0 (equivalent to the non-treated area) to 100 (complete kill) Upland field soil was put into a 1/160,000 ha pot, and seeds of common lespedeza (Lespedeza striata (Thunb.) Hook. et Arn.) were sown. On the next day, predetermined amounts of flazasulfuron and imazapic were diluted with water (in an amount corresponding to 300 L/ha), and applied for soil treatment by a small sprayer. On the 21st day after treatment, the state of growth of the common lespedeza was visually observed to determine the growth inhibition rate. The growth inhibition rate (%) (measured value) and the growth inhibition rate (%) calculated in the same manner as in Test Example 1 are shown in Table 12.

The subject of assay [2] is wild oat (Avena fatua L.). Kind of assay: Test Example 3: pot soil treatment, growth inhibition of wild oat. The settings on record: 22nd day after treatment, read-out: Growth inhibition rate (%) of wild oat, Measured value.
From the text: as §1, with “wild oat (Avena fatua L.)” for “common lespedeza (Lespedeza striata (Thunb.) Hook. et Arn.)”, “flazasulfuron, mesotrione” for “flazasulfuron”, “22nd” for “21st”, “wild oat” for “common lespedeza”, “3.” for “12.”

Assay [3] has as its system common ragweed (Ambrosia artemisiifolia L.). Kind of assay: Test Example 11: pot soil treatment, growth inhibition of common ragweed. The settings on record: dose 150 g/ha, 21st day after treatment, read-out: Growth inhibition rate (%) of common ragweed, Measured value.
From the text: as §1, with “ragweed (Ambrosia artemisiifolia L.)” for “lespedeza (Lespedeza striata (Thunb.) Hook. et Arn.)”, “ragweed” for “lespedeza”, “11.” for “12.”

In assay [4] the test system is summergrass (Digitaria ciliaris (Retz.) Koeler). Description: Test Example 1: pot soil treatment, growth inhibition of summergrass. The settings on record: dose 150 g/ha, 14th day after treatment, read-out: Growth inhibition rate (%) of summergrass, Measured value. How it is done: Upland field soil was put into a 1/160,000 ha pot, and seeds of summergrass (Digitaria ciliaris (Retz.) Koeler) were sown. On the next day, predetermined amounts of flazasulfuron and imazapic were diluted with water (in an amount corresponding to 300 L/ha), and applied for soil treatment by a small sprayer. On the 14th day after treatment, the state of growth of the summergrass was visually observed to determine the growth inhibition rate in accordance with the following evaluation standard. The growth inhibition rate (%) (measured value) and the growth inhibition rate (%) (calculated value) calculated by the Colby's formula are shown in Table 1. Growth inhibition rate (%)=0 (equivalent to the non-treated area) to 100 (complete kill)

Assay [5] has as its system persian speedwell (Veronica persica Poir.). Kind of assay: Test Example 8: pot soil treatment, growth inhibition of persian speedwell. The settings on record: 21st day after treatment, read-out: Growth inhibition rate (%) of persian speedwell, Measured value.
For assay [6], the system named is velvetleaf (Abutilon theophrasti MEDIC.). Kind of assay: Test Example 13: pot soil treatment, growth inhibition of velvetleaf. As to conditions: dose 50 g/ha, 21st day after treatment, read-out: Growth inhibition rate (%) of velvetleaf, Measured value.
The test system of assay [7] is field bindweed (Convolvulus arvensis L.). Description: Test Example 15: pot soil treatment, growth inhibition of field bindweed. As to conditions: 21st day after treatment, read-out: Growth inhibition rate (%) of field bindweed, Measured value.
From the text: as §1, with “field bindweed (Convolvulus arvensis L.)” for “common lespedeza (Lespedeza striata (Thunb.) Hook. et Arn.)”, “flazasulfuron, mesotrione” for “flazasulfuron”, “field bindweed” for “common lespedeza”, “15.” for “12.”

The test system of assay [8] is guinea grass (Panicum maximum Jacq.). Description: Test Example 4: pot soil treatment, growth inhibition of guinea grass. The settings on record: Megathyrsus maximus, dose 200 g/ha, 22nd day after treatment, read-out: Growth inhibition rate (%) of guinea grass, Measured value.
From the text: as §1, with “guinea grass (Panicum maximum Jacq.)” for “common lespedeza (Lespedeza striata (Thunb.) Hook. et Arn.)”, “mesotrione” for “imazapic”, “22nd” for “21st”, “guinea grass” for “common lespedeza”, “4.” for “12.”

Assay [9] has as its system rostrate sesbania(Sesbania rostrata Bremek. & Oberm.). Kind of assay: Test Example 7: pot soil treatment, growth inhibition of rostrate sesbania. The settings on record: 22nd day after treatment, read-out: Growth inhibition rate (%) of rostrate sesbania, Measured value.

As usually defined, the inhibition is the percentage by which the read-out fell short of the control.

For `Cc1cnc(C2=NC(=O)C(C)(C(C)C)N2)c(C(=O)O)c1` (stereo not shown) [Imazapic, imazapic], the inhibition at 50 g/ha in assay [1] was determined as 0%; in assay [5] it was 50%; in assay [6] it was 30%. Besides, the inhibition at 100 g/ha in [2] (dose 100 g/ha) amounted to 40%. The inhibition at 150 g/ha in assay [2] (dose 150 g/ha) was determined as 60%; in assay [3] it was 60%; in assay [4] it was 50%; in [7] (dose 150 g/ha), 15%.

For `CS(=O)(=O)c1ccc(C(=O)C2C(=O)CCCC2=O)c([N+](=O)[O-])c1` [Mesotrione, mesotrione], the inhibition at 50 g/ha in assay [2] (dose 50 g/ha) came out at 40%; in [9], 15%. In addition, the inhibition at 200 g/ha was determined as 0% in [2] (dose 200 g/ha), 0% in assay [8] and 60% in assay [7] (dose 200 g/ha).
